Source: PubChem BioAssay (NCI)
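Method: 48-hour compound exposure of cells in 96-well plates, five concentrations, linear interpolation of endpoints. Definition used: TGI = concentration required for complete inhibition of growth.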

How the values were obtained:
Test in all cases: inhibition of tumour cell growth, NCI panel, 48 h
786-0 renal = test system: 786-0 renal
A498 renal = test system: A498 renal
A549 NSCLC = test system: A549 NSCLC
ACHN renal = test system: ACHN renal
BT-549 breast = test system: BT-549 breast
CAKI-1 renal = test system: CAKI-1 renal
CCRF-CEM leukemia = test system: CCRF-CEM leukemia
COLO 205 colon = test system: COLO 205 colon
DU-145 prostate = test system: DU-145 prostate
EKVX NSCLC = test system: EKVX NSCLC
HCC-2998 colon = test system: HCC-2998 colon
HCT-116 colon = test system: HCT-116 colon
HCT-15 colon = test system: HCT-15 colon
HL-60(TB) leukemia = test system: HL-60(TB) leukemia
HOP-62 NSCLC = test system: HOP-62 NSCLC
HOP-92 NSCLC = test system: HOP-92 NSCLC
HT29 colon = test system: HT29 colon
IGROV1 ovarian = test system: IGROV1 ovarian
K-562 leukemia = test system: K-562 leukemia
KM12 colon = test system: KM12 colon
M14 melanoma = test system: M14 melanoma
MALME-3M melanoma = test system: MALME-3M melanoma
MCF7 breast = test system: MCF7 breast
MDA-MB-231 breast = test system: MDA-MB-231 breast
MDA-MB-435 = test system: MDA-MB-435
MDA-N = test system: MDA-N
MOLT-4 leukemia = test system: MOLT-4 leukemia
NCI-H226 lung = test system: NCI-H226 lung
NCI-H23 lung = test system: NCI-H23 lung
NCI-H460 lung = test system: NCI-H460 lung
NCI-H522 lung = test system: NCI-H522 lung
NCI/ADR-RES ovarian = test system: NCI/ADR-RES ovarian
OVCAR-3 ovarian = test system: OVCAR-3 ovarian
OVCAR-4 ovarian = test system: OVCAR-4 ovarian
OVCAR-5 ovarian = test system: OVCAR-5 ovarian
OVCAR-8 ovarian = test system: OVCAR-8 ovarian
PC-3 prostate = test system: PC-3 prostate
RPMI-8226 leukemia = test system: RPMI-8226 leukemia
RXF 393 renal = test system: RXF 393 renal
SF-268 CNS = test system: SF-268 CNS
SF-295 CNS = test system: SF-295 CNS
SF-539 CNS = test system: SF-539 CNS
SK-MEL-2 melanoma = test system: SK-MEL-2 melanoma
SK-MEL-28 melanoma = test system: SK-MEL-28 melanoma
SK-MEL-5 melanoma = test system: SK-MEL-5 melanoma
SK-OV-3 ovarian = test system: SK-OV-3 ovarian
SN12C renal = test system: SN12C renal
SNB-19 CNS = test system: SNB-19 CNS
SR leukemia = test system: SR leukemia
SW-620 colon = test system: SW-620 colon
T-47D breast = test system: T-47D breast
TK-10 renal = test system: TK-10 renal
U251 CNS = test system: U251 CNS
UACC-257 melanoma = test system: UACC-257 melanoma
UACC-62 melanoma = test system: UACC-62 melanoma
UO-31 renal = test system: UO-31 renal
SNB-75 CNS = test system: SNB-75 CNS
LOX IMVI melanoma = test system: LOX IMVI melanoma

Measured: TGI

CC1(CO)OC(n2cnc3cncnc32)CC1O (stereo unspecified)
> 100 µM: 786-0 renal | A498 renal | A549 NSCLC | ACHN renal | BT-549 breast | CAKI-1 renal | CCRF-CEM leukemia | COLO 205 colon | DU-145 prostate | EKVX NSCLC | HCC-2998 colon | HCT-116 colon | HCT-15 colon | HL-60(TB) leukemia | HOP-62 NSCLC | HOP-92 NSCLC | HT29 colon | IGROV1 ovarian | K-562 leukemia | KM12 colon | M14 melanoma | MALME-3M melanoma | MCF7 breast | MDA-MB-231 breast | MDA-MB-435 | MDA-N | MOLT-4 leukemia | NCI-H226 lung | NCI-H23 lung | NCI-H460 lung | NCI-H522 lung | NCI/ADR-RES ovarian | OVCAR-3 ovarian | OVCAR-4 ovarian | OVCAR-5 ovarian | OVCAR-8 ovarian | PC-3 prostate | RPMI-8226 leukemia | RXF 393 renal | SF-268 CNS | SF-295 CNS | SF-539 CNS | SK-MEL-2 melanoma | SK-MEL-28 melanoma | SK-MEL-5 melanoma | SK-OV-3 ovarian | SN12C renal | SNB-19 CNS | SR leukemia | SW-620 colon | T-47D breast | TK-10 renal | U251 CNS | UACC-257 melanoma | UACC-62 melanoma | UO-31 renal

CNC(=O)C(C)C1C(=O)/C(=C(O)/C=C\C(C)=C\C(C)C2OC3(C)OC(C=CC34CO4)C2C)C(=O)N1C1CCC(O)C(C)O1 (stereo unspecified)
> 100 µM: 786-0 renal | A498 renal | A549 NSCLC | ACHN renal | BT-549 breast | CAKI-1 renal | CCRF-CEM leukemia | COLO 205 colon | DU-145 prostate | EKVX NSCLC | HCC-2998 colon | HCT-116 colon | HCT-15 colon | HOP-62 NSCLC | HT29 colon | IGROV1 ovarian | K-562 leukemia | KM12 colon | M14 melanoma | MALME-3M melanoma | MCF7 breast | MDA-MB-231 breast | MDA-MB-435 | MDA-N | MOLT-4 leukemia | NCI-H460 lung | NCI/ADR-RES ovarian | OVCAR-3 ovarian | OVCAR-5 ovarian | OVCAR-8 ovarian | PC-3 prostate | RPMI-8226 leukemia | RXF 393 renal | SF-268 CNS | SF-539 CNS | SK-MEL-2 melanoma | SK-MEL-28 melanoma | SK-MEL-5 melanoma | SK-OV-3 ovarian | SN12C renal | SNB-19 CNS | SNB-75 CNS | SR leukemia | SW-620 colon | T-47D breast | TK-10 renal | U251 CNS | UACC-257 melanoma | UACC-62 melanoma | UO-31 renal

CCOC(=O)N/N=C(\Cc1ccccc1)OCC
> 100 µM: 786-0 renal | A549 NSCLC | ACHN renal | BT-549 breast | CCRF-CEM leukemia | COLO 205 colon | DU-145 prostate | EKVX NSCLC | HCC-2998 colon | HCT-116 colon | HCT-15 colon | HOP-62 NSCLC | HOP-92 NSCLC | HT29 colon | IGROV1 ovarian | K-562 leukemia | KM12 colon | LOX IMVI melanoma | M14 melanoma | MCF7 breast | MDA-MB-231 breast | MDA-MB-435 | MDA-N | MOLT-4 leukemia | NCI-H23 lung | NCI-H522 lung | NCI/ADR-RES ovarian | OVCAR-3 ovarian | OVCAR-4 ovarian | OVCAR-5 ovarian | OVCAR-8 ovarian | PC-3 prostate | RPMI-8226 leukemia | RXF 393 renal | SF-268 CNS | SF-295 CNS | SF-539 CNS | SK-MEL-2 melanoma | SK-MEL-5 melanoma | SK-OV-3 ovarian | SN12C renal | SNB-19 CNS | SNB-75 CNS | SR leukemia | SW-620 colon | TK-10 renal | U251 CNS | UACC-257 melanoma | UACC-62 melanoma | UO-31 renal
